Key:
[1] = AZILECT Product Label, May 2006; cited from earlier work
[2] = Genotoxicity of the by-product; details: by-product of rasagiline drug substance production; no test described

| Structure (SMILES) | absolute bioavailability [1] | genotoxicity [2] |
| --- | --- | --- |
| C#CCN[C@@H]1CCc2ccccc21 [rasagiline, R(+)-N-propargyl-1-aminoindan] | about 36% | – |
| C#CCNC1CC(=O)c2ccccc21 (centres unmarked) [3-keto-N-propargyl-1-aminoindan] | – | not genotoxic |

From patent US20150045445A1, “3-KETO-N-PROPARGYL-1-AMINOINDAN” (TEVA PHARMACEUTICAL INDUSTRIES, LTD., priority 2009, published 2015)
